Measurements taken from patent publication US20250188136A1, “AV3 MUTANT POLYPEPTIDES FOR PEST CONTROL” (Vestaron Corporation, priority 2021, published 2025).
Entries after “also recorded” stand apart in the source; their conditions may differ. Ends that are not written are not given here.

What was measured:
Helicoverpa zea = assay: Lepidoptera injection assay, corn earworm (CEW); assay type: in vivo
Protocol: An injection assay was performed on Helicoverpa zea (corn earworm or “CEW”) and Spodoptera frugiperda (fall armyworm or “FAW”). Injections comprised a given Av3b mutant peptide combined with water to arrive at the planned dose. The Av3b mutants included Av3bM24; Av3bM165; Av3bM103; and Av3bM170. Av3b was used as a control.
Insects were reared on an artificial diet prepared from General Purpose Lepidoptera diet (Frontier Scientific, Newark, DE 19713, product No. F9772) according to the manufacturer's instructions. To perform the insect injection bioassay, 5 mL of hot diet was dispensed into the well of a rearing tray (Bio-Service Inc., Bio-RT-32), with 8 wells per injection treatment. The hot diet was then allowed to cool and solidify. Next, third instar larva were incubated on ice in order to immobilize them. Injections were prepared on a hand-microapplicator with injection solution (>100 μL) in 1-cc all-glass syringe having a 30 gauge straight needle. Air bubbles were removed from the syringe, and the syringe was set it up on the microapplicator. Injection volume was adjusted in the microapplicator at 2 μL.
To inject the larva, the insects were picked up and positioned close to the injection needle. The needle was allowed to penetrate the cuticle of the third pro-leg of the larva. The injection knob of the microapplicator was then rotated to inject a 2 μL solution into hemolymph from the third pro-leg. After injection the larva maintained on the needle for a few seconds to make sure the injected solution was absorbed. Then, the larva were gently removed from the needle and placed into the wells of prepared tray, along with 5 mL of solidified diet per well. Finally, the tray was sealed with vent covers.
Injected larva were incubated at 28° C. in an insect incubator, and scored at 24-hours post-injection based on their condition. Insect conditions were categorized as follows: alive (walking, eating, normal behavior); affected (showing toxic symptoms, such as tremors, writhing, unbalanced gait, or a combination thereof), knockdown (paralyzed albeit able to move with gentle poke); and dead (unmoving, discoloration, or a combination thereof).

houseflies = assay: Housefly injection assay (knock-down); assay type: in vivo, Musca domestica
Protocol: An exemplary housefly injection bioassay is as follows: conditioned media is serially diluted to generate full dose-response curves from the housefly injection bioassay. Before injection, adult houseflies (Musca domestica) are immobilized with CO2, and 12-18 mg houseflies are selected for injection. A microapplicator, loaded with a 1 cc syringe and 30-gauge needle, is used to inject 0.5 μL per fly, doses of serially diluted conditioned media samples into houseflies through the body wall of the dorsal thorax. The injected houseflies are placed into closed containers with moist filter paper and breathing holes on the lids, and they are examined by knock-down ratio or by mortality scoring at 24 hours post-injection. Normalized yields are calculated. Peptide yield means the peptide concentration in the conditioned media in units of mg/L. However, peptide yields are not always sufficient to accurately compare the strain production rate. […] A culture with a high cell density may produce a higher concentration of the peptide in the media, even though the peptide production rate of the strain is lower than another strain which has a higher production rate. Accordingly, the term “normalized yield” is created by dividing the peptide yield with the cell density in the corresponding culture and this allows a better comparison of the peptide production rate between strains. The cell density is represented by the light absorbance at 600 nm with a unit of “A” (Absorbance unit).
A housefly injection assay was performed to determine the activity of the new mutants. Adult houseflies were immobilized with CO2 for 10 minutes, and then transferred to a CO2 pan to keep immobilized. Flies with weight between 12-20 mg were picked for injection. The new mutants and Av3b control were diluted in water to proper doses for injection. Next, a 0.5 μL peptide solution was injected into each housefly at the dorsal thorax using a hand-microapplicator with 1 cc all-glass syringe with 30 gauge straight needle. The injected flies were then transferred to a 2 oz. transparent portion container with a wet #4 filter paper. Fly knock-down was assessed at 5-hours post-injection. The activity of a given new mutant was then normalized to the activity of the Av3b production strain (control), using the fly knock-down score at 5 hours.

[1] = Stability of purified peptide spiked into Av3b fermentation beer (rpHPLC); assay type: physicochemical
Protocol: To determine the stability of the new mutants, Av3bM19, Av3bM23, Av3bM24, Av3bM25, Av3bM27, and Av3bM28 were purified and incubated in Av3b fermentation beer. The mutants were purified by cation-exchange chromatography using a GE SP-Sephadex C-25 column. The column was first calibrated with 30 mM sodium citrate buffer at pH 3.0. Then, the culture supernatant containing the secreted mutant peptide was loaded into the column to let the mutant peptide bind to the resin. The column was then washed with 30 mM sodium citrate buffer, pH 3.0, followed by washing with 30 mM sodium acetate, pH 4.0. Next, the bound mutant peptide was eluted by 1 M or 2 M NaCl with 30 mM sodium acetate, pH 4.0. The elution was then concentrated and buffer-exchanged to 30 mM sodium acetate, pH 4.0 using a 1 kD cutoff spin concentrator.
After purification, each of the mutants, Av3bM19, Av3bM23, Av3bM24, Av3bM25, Av3bM27, and Av3bM28, were evaluated for stability by spiking them into Av3b strain fermentation beer at pH 6.5. As a negative control, Av3b was evaluated in a pH 4.0 buffer. As a positive control, purified Av3b was evaluated by spiking into the same Av3b fermentation beer at pH 6.5. All stability experiments were performed at room temperature. […] The amount of peptide remaining relative to the beginning was determined by normalizing the peak area at different time to the one at 0 hour for each treatment. The degradation trend is visualized by the bar graph of the relative remaining peptide amount trend.

Sequence: KSCCPCYWGGCPWGQNCYPEGCDGPK (ends and bridges not checked; cysteine pairing not given here) [Av3bM24]
- knock-down effects compared to Av3b (Helicoverpa zea; CEW and FAW injection, KD50): comparable knock-down effects to Av3b
- KD50 CEW (Helicoverpa zea; third instar larva, 2 μL injection, scored at 24-hours post-injection): 428 ± 131 (N = 4) pmol/g
- housefly knock-down / insecticidal activity relative to Av3b (houseflies; knock-down at 5 hours post-injection): without a concomitant reduction in housefly knock-down activity; also recorded: insecticidal activity
- Activity (houseflies; knock-down at 5 hours post-injection normalized to Av3b, Yes = insecticidal activity maintained): Yes
- half-degradation time ([1]; Av3b production fermentation beer pH 6.5, room temperature (Example 11, FIG. 37)): 652 h
- peptide remaining ([1]; fermentation beer pH 6.5, room temperature, 248 hours, HPLC peak area relative to starting amount): 84%
- resistance to fermentation beer protease cleavage compared to Av3b ([1]; spiked into Av3b fermentation beer pH 6.5, room temperature): greater resistance to yeast fermentation beer protease cleavage; also recorded: improved resistance to fermentation beer cleavage; also recorded: resist the degradation in Av3b fermentation beer
